Reference: ChEMBL document CHEMBL5365393, “Comprehensive coverage on anti-mycobacterial endeavour reported during 2022” (Eur J Med Chem, 2023)
Converted amounts (≈) assume the structure as drawn.

Legend:
Assay type in all cases: functional
[1] = test system: Mycobacterium tuberculosis; assay: Antibacterial activity against isoniazid and rifampicin-resistant Mycobacterium tuberculosis T113/09 assessed as inhibition of bacterial growth
[2] = test system: Mycobacterium tuberculosis; assay: Antibacterial activity against ethambutol-resistant Mycobacterium tuberculosis H37Rv assessed as inhibition of bacterial growth
[3] = test system: Mycobacterium tuberculosis; assay: Antibacterial activity against streptomycin-resistant Mycobacterium tuberculosis H37Rv assessed as inhibition of bacterial growth
[4] = test system: Mycobacterium tuberculosis; assay: Antibacterial activity against rifampicin-resistant Mycobacterium tuberculosis H37Rv assessed as inhibition of bacterial growth
[5] = test system: Mycobacterium tuberculosis; assay: Antibacterial activity against isoniazid-resistant Mycobacterium tuberculosis H37Rv assessed as inhibition of bacterial growth
[6] = test system: Mycobacterium tuberculosis; assay: Antibacterial activity against multidrug-resistant Mycobacterium tuberculosis assessed as inhibition of bacterial growth
[7] = test system: Mycobacterium tuberculosis; assay: Antibacterial activity against extensively drug-resistant Mycobacterium tuberculosis assessed as inhibition of bacterial growth
[8] = test system: Mycobacterium tuberculosis; assay: Antibacterial activity against multidrug-resistant Mycobacterium tuberculosis clinical isolate H37Rv assessed as inhibition of bacterial growth
[9] = test system: Mycobacterium tuberculosis; assay: Antibacterial activity against extensively drug-resistant Mycobacterium tuberculosis clinical isolate H37Rv assessed as inhibition of bacterial growth
[10] = test system: Mycobacterium tuberculosis; assay: Antibacterial activity against extensively drug-resistant Mycobacterium tuberculosis assessed as inhibition of bacterial growth by microplate alamar blue assay
[11] = test system: Mycobacterium tuberculosis; assay: Antibacterial activity against multidrug-resistant Mycobacterium tuberculosis assessed as inhibition of bacterial growth by microplate alamar blue assay
[12] = test system: Mycobacterium tuberculosis; assay: Antibacterial activity against multidrug-resistant Mycobacterium tuberculosis clinical isolate CDCT-27 assessed as inhibition of bacterial growth
[13] = test system: Mycobacterium tuberculosis; assay: Antibacterial activity against multidrug-resistant Mycobacterium tuberculosis clinical isolate CDCT-16 assessed as inhibition of bacterial growth

Compound: CCCCCCc1ccc(-c2cn(CC(=O)Cn3ccnc3[N+](=O)[O-])nn2)cc1
- MIC [1]: 16.3 µM (≈ 6.46 µg/mL)

Compound: COC(=O)c1cc(-c2ccc(OC)c(NC(=O)c3cc(-c4cccc(Cl)c4)nc4ccccc34)c2)on1
- MIC [2]: 0.25 µg/mL (≈ 0.486 µM)
- MIC [3]: 0.25 µg/mL (≈ 0.486 µM)
- MIC [4]: 0.25 µg/mL (≈ 0.486 µM)
- MIC [5]: 0.5 µg/mL (≈ 0.973 µM)

Compound: COc1ccc(-c2nn(-c3ccc([N+](=O)[O-])cc3[N+](=O)[O-])c(N)c2C#N)cc1Oc1cccc(Br)c1C#N
- MIC [6]: 1.95 µg/mL (≈ 3.38 µM)
- MIC [7]: 3.9 µg/mL (≈ 6.77 µM)

Compound: CC(C)/N=c1\cc2n(-c3ccccc3)c3ccccc3nc-2cc1Nc1ccc(N2CCN(C)CC2)c(F)c1
- MIC [8]: 0.08 µg/mL (≈ 0.154 µM)
- MIC [9]: 0.08 µg/mL (≈ 0.154 µM)

Compound: O=C(N/N=C1\C(=O)N(Cc2ccccc2)c2ccccc21)c1cnc2cc(Cl)ccc2c1O
- MIC [10]: 1.95 µg/mL (≈ 4.27 µM)
- MIC [11]: 0.24 µg/mL (≈ 0.525 µM)

Compound: Cc1nc2cc(C(F)(F)F)ccc2n1-c1ncc(C(F)(F)F)s1
- MIC [12]: 3.68 µM (≈ 1.29 µg/mL)
- MIC [13]: 4.16 µM (≈ 1.46 µg/mL)
